# In patent publication EP0830890A1, “Surfactants for use in liquid/supercritical CO2” (AIR PRODUCTS AND CHEMICALS, INC., priority 1996, dated 1998):
# Columns and labels:
# Assay type in all cases: physicochemical
# [1] = Solubility in CO2 by cloud point determination in a variable volume view cell; set-up: Pressure Describing Cloud Point Determinations For Surfactant/CO2 Concentrations / Pressure Describing Cloud Point Determinations For Surfactant/CO2Concentrations: unit not given here
# Protocol: In the following examples, mixtures of acetylenic alcohols or diols and CO2 were prepared by adding the acetylenic alcohol or diol to a stainless steel variable volume view cell equiped with suitable relief devices, high pressure valves CO2 inlet and outlet and a sapphire window at one end. A high pressure syringe pump (High Pressure Products, HIP pump) was filled with liquid CO2 and used to quantitiatively add CO2 to the pressure vessel. The pressure vessel contained a magnetic stirrer and was stirred via a magnetic couple to a magnet located below the vessel.
# A weighed amount of surfactant (0.5-10 weight %) was placed inside the cell chamber in front of the piston. The cell window was attached and 10 cc ? s of CO2, was added to the cell. The surfactant was mixed in the CO2 using a magnetic stirring bar. The cell was mounted in horizontally and then immersed in a water bath. After allowing the high pressure cell to attain thermal equilibrium the pressure within the cell was varied using a floating piston. The pressure was changed to monitor the cloud point as being indicative of insolubility. The operator viewed the floating piston through the sapphire window using a suitable optic device, the onset of insolubility was taken when the translucent solution changed to an orange/brown color due to the Tindall light scattering of the insoluble droplets. The onset of insolubility was checked several times by varying the pressure using the high pressure syringe pump.
# A water bath was used to vary the temperature for each concentration. On completing the solubility studies at one concentration and one temperature series, a calibrated injector loop attached to the high pressure cell was filled with the surfactant via a syringe. Utilizing a six way valve to help inject this fixed amount of surfactant, the surfactant concentration within the high pressure cell was increased by a fixed increment. The solubility studies for this new CO2/surfactant concentration were measured at various temperatures in a similar manner to that previously described.
# [2] = Interfacial tension of a PEG 600 drop in CO2/surfactant solution via pendant drop technique; conditions: PEG (600) drop, 2 weight % Surfynol/CO2 solution
# Source text: Interfacial activity can be monitored using the 'pendant drop' technique, ("Chemistry of Interfaces" M.J.Jaycock & Parfitt, John Wiley and Sons, New York p49-51). This method is utilized to measure the interfacial tension between a pendant drop and a continuous phase that surrounds the drop. When carbon dioxide is used as the continuous media, special high pressure equipment with sapphire view ports is required to maintain a solution of CO2 and surfactant, and to study the change in shape of the pendant drop for interfacial tension calculations. A general procedure for these high pressure phase behavior measurements may be found in Langmuir, vol. 10 1994, pg 3536-3541, by K. Harrison, K. P. Johnston, J. Goveas and E. A. O ? Rear.
# Various ethoxylates of 2,4,7,9-tetramethyl-5-decyn-4,7-diol were used in the interfacial tension study. Table 3 gives the interfacial tension observed for ethoxylates of 2,4,7,9-tetramethyl-5-decyn-4,7-diol containing 20, 40, and 65 wt% ethylene oxide. The table also gives the interfacial tension of the polyethyleneglycol (PEG 600)drop within the pure CO2 media. […] It is interesting to note the actual reduction in interfacial tension. For a control PEG 600 drop at 2510 psi the interfacial tension was measured to be 3.39 dyne/cm (run #5in Table 3). […] This corresponds to lowering the interfacial tension by 0.54 dyne/cm, a 16% reduction. A surfactant/CO2 solution of 2 weight % (using the 40 wt% ethoxylated Surfynol surfactant) gave an interfacial tension of 1.57 dyne/cm. at a CO2 pressure of 4030 psi (run #33in Table 3). The corresponding PEG drop at 4093psi used as the control gave an interfacial tension of 1.92dyne/cm (run #18 in Table 3).
# [3] = Solubility in CO2 by cloud point determination in a variable volume view cell; set-up: unit not given here; conditions: Surfactant Concn. in CO2 0.2486 wt%; 65°C
substance,measurement,setting,value
"Ethoxylated 2,4,7,9-Tetramethyl-5-decyn-4,7-diol [AP-465]",Pressure Describing Cloud Point Determinations For Surfactant/CO2Concentrations,"[1]; Surfactant Concn. in CO2 0.2486 wt%, 25°C",1440
same,Pressure Describing Cloud Point Determinations For Surfactant/CO2Concentrations,"[1]; Surfactant Concn. in CO2 0.2486 wt%, 35°C",1920
same,Pressure Describing Cloud Point Determinations For Surfactant/CO2Concentrations,"[1]; Surfactant Concn. in CO2 0.2486 wt%, 60°C",2690
same,Pressure Describing Cloud Point Determinations For Surfactant/CO2Concentrations,"[1]; Surfactant Concn. in CO2 0.8867 wt%, 35°C",4020
same,Pressure Describing Cloud Point Determinations For Surfactant/CO2Concentrations,"[1]; Surfactant Concn. in CO2 0.8867 wt%, 45°C",4590
same,Pressure Describing Cloud Point Determinations For Surfactant/CO2Concentrations,"[1]; Surfactant Concn. in CO2 0.8867 wt%, 60°C",5270
same,Pressure Describing Cloud Point Determinations For Surfactant/CO2Concentrations,"[1]; Surfactant Concn. in CO2 0.8867 wt%, 65°C",5470
same,CO2 solubility (in words),[1]; in CO2,poor CO2 solubility
same,Interfacial Tension IFT,[2]; 3599 psi (248 bar),1.95 dyne/cm
same,Interfacial Tension IFT,[2]; 3628 psi (250 bar),1.99 dyne/cm
same,Interfacial Tension IFT,[2]; 3995 psi (276 bar),1.73 dyne/cm
same,Interfacial Tension IFT,[2]; 3998 psi (276 bar),1.66 dyne/cm
same,Interfacial Tension IFT,[2]; 4505 psi (311 bar),1.51 dyne/cm
same,Interfacial Tension IFT,[2]; 4508 psi (311 bar),1.57 dyne/cm
same,Pressure Describing Cloud Point Determinations For Surfactant/CO2Concentrations,[3],2800
